Each compound was assayed against T1, voltage-dependent T-type calcium channel subunit alpha-1G (Cav3.2) (Homo sapiens, UniProt O95180) (assay: FLIPR calcium flux assay, HEK293 cells recombinantly expressing Cav3.2). Settings: Cav3.2-channel, Fluo-4-AM, 3 min incubation, stimulation with 10 mM CaCl2.
T1 construct: expressed in transfected cells; host or cells: HEK293
Format: cell-based
Procedure, shortened: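 Calcium influx was triggered by adding CaCl2 to 10 mM final, 3 min after compounds in tetraethylammonium-based buffer, pH 7.2, reached Fluo-4-AM-loaded recombinant HEK293 cells. The integrated kinetic fluorescence signal per concentration gave concentration-response curves by non-linear sigmoidal regression.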

T1 sequence (O95180 whole entry): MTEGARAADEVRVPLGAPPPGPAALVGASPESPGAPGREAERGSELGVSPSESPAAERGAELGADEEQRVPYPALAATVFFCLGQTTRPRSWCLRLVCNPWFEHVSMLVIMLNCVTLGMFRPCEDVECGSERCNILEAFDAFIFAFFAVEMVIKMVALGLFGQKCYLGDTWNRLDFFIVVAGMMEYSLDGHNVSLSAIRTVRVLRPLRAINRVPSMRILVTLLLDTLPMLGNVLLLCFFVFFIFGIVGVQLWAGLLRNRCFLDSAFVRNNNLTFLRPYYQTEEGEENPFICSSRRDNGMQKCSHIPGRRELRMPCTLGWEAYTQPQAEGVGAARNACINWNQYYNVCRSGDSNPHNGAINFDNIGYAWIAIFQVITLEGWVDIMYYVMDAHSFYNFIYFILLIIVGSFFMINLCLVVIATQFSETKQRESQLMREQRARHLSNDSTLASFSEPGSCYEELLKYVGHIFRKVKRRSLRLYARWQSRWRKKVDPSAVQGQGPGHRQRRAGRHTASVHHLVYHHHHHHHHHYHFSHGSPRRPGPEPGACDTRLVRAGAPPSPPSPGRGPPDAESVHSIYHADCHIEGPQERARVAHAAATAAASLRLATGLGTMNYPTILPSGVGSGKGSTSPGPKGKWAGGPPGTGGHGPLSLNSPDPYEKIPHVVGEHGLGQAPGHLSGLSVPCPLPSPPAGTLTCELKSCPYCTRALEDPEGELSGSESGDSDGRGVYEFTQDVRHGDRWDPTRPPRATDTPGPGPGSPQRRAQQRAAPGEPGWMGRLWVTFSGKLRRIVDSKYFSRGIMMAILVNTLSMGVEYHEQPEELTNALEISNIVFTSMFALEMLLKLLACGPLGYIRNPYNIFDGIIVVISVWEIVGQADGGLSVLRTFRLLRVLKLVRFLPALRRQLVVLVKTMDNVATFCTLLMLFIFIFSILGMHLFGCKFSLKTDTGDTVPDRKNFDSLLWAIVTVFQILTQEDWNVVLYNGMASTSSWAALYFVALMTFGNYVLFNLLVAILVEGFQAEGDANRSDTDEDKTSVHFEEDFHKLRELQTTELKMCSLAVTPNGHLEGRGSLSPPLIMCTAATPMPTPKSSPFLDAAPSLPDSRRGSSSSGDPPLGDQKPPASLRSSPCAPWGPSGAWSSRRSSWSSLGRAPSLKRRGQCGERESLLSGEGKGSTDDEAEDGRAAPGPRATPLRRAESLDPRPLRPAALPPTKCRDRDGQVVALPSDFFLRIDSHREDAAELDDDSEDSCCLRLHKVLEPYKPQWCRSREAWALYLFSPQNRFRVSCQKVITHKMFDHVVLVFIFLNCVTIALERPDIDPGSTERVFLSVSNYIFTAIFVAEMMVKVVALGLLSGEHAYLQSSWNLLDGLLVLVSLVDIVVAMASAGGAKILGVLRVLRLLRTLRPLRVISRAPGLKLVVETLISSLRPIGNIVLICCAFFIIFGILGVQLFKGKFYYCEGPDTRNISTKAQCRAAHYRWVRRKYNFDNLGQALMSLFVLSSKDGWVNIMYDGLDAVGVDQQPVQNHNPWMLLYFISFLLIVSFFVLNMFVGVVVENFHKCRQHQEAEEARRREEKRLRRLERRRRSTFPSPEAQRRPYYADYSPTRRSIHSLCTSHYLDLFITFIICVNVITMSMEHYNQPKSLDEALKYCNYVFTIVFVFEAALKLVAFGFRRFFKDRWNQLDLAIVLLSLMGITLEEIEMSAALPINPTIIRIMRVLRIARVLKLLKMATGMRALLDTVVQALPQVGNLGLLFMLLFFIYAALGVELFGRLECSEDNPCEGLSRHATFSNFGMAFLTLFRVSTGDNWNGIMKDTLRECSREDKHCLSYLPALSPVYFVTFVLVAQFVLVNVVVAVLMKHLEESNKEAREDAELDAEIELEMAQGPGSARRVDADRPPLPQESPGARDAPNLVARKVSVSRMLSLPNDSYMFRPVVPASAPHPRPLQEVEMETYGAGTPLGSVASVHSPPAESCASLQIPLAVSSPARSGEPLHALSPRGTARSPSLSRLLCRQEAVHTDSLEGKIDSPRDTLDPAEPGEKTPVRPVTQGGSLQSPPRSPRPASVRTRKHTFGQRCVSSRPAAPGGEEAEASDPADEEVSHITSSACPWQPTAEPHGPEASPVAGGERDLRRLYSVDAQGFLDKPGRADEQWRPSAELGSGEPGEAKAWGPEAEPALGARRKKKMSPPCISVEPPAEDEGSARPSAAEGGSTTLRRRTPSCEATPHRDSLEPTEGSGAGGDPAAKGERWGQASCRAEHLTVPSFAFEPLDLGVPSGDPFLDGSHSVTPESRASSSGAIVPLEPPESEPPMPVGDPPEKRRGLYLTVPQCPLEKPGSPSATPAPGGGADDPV

| SMILES | IC50 [nM] |
| --- | --- |
| COCCN(C)c1ccc(CC(=O)Nc2ccn(Cc3ccc(OC)cc3)n2)cc1 [Example 125, N-[1-(4-Methoxy-benzyl)-1H-pyrazol-3-yl]-2-{4-[(2-methoxy-ethyl)-methyl-amino]-phenyl}-acetamide] | 64 |
| CCN(C)c1ccc(CC(=O)Nc2ccn(Cc3ccc(OC)cc3)n2)cc1 [Example 129, 2-[4-(Ethyl-methyl-amino)-phenyl]-N-[1-(4-methoxy-benzyl)-1H-pyrazol-3-yl]-acetamide] | 128 |
| CN(C)c1ccc(CC(=O)Nc2ccn(Cc3ccc(Cl)c(C(F)(F)F)c3)n2)cc1 [Example 27, N-[1-(4-Chloro-3-trifluoromethyl-benzyl)-1H-pyrazol-3-yl]-2-(4-dimethylamino-phenyl)-acetamide] | 61 |
| Cn1cc(C#N)c2cc(CC(=O)Nc3ccn(Cc4ccc(F)c(C#N)c4)n3)ccc21 [Example 329, N-[1-(3-Cyano-4-fluoro-benzyl)-1H-pyrazol-3-yl]-2-(3-cyano-1-methyl-1H-indol-5-yl)-acetamide] | 80 |
| O=C(Cc1ccc2nccnc2c1)Nc1ccn(Cc2ccc(F)c(F)c2)n1 [Example 205, N-[1-(3,4-Difluoro-benzyl)-1H-pyrazol-3-yl]-2-quinoxalin-6-yl-acetamide] | 288 |
| CC(C)c1ccc(CC(=O)Nc2ccn(Cc3ccc(N4CCC(F)(F)C4)cn3)n2)cc1 [Example 396, N-{1-[5-(3,3-Difluoro-pyrrolidin-1-yl)-pyridin-2-ylmethyl]-1H-pyrazol-3-yl}-2-(4-isopropyl-phenyl)-acetamide] | 369 |
| CC(C)c1ccc(CC(=O)Nc2ccn(Cc3cc(C4CC4)c(C#N)cn3)n2)cc1 [Example 170, N-[1-(5-Cyano-4-cyclopropyl-pyridin-2-ylmethyl)-1H-pyrazol-3-yl]-2-(4-isopropyl-phenyl)-acetamide] | 191 |
| N#Cc1ccc(Cn2ccc(NC(=O)Cc3ccc(N4CC[C@@H](F)C4)nc3)n2)nc1 [Example 138, N-[1-(5-Cyano-pyridin-2-ylmethyl)-1H-pyrazol-3-yl]-2-[6-((R)-3-fluoro-pyrrolidin-1-yl)-pyridin-3-yl]-acetamide] | 756 |
| N#Cc1ccc(Cn2ccc(NC(=O)Cc3ccc(OC4CCC4)cc3)n2)cc1 [Example 197, N-[1-(4-Cyano-benzyl)-1H-pyrazol-3-yl]-2-(4-cyclobutoxy-phenyl)-acetamide] | 54 |
| COCCN(C)c1ccc(CC(=O)Nc2ccn(Cc3ccc(C#N)cn3)n2)cn1 [Example 179, N-[1-(5-Cyano-pyridin-2-ylmethyl)-1H-pyrazol-3-yl]-2-{6-[(2-methoxy-ethyl)-methyl-amino]-pyridin-3-yl}-acetamide] | 2500 |
| Cc1cc(Cn2ccc(NC(=O)Cc3ccc(N(C)C)cc3)n2)cc(C)c1F [Example 25, 2-(4-Dimethylamino-phenyl)-N-[1-(4-fluoro-3,5-dimethyl-benzyl)-1H-pyrazol-3-yl]-acetamide] | 64 |
| CN(C)c1ccc(CC(=O)Nc2ccn(Cc3cc(F)c(F)c(F)c3)n2)cn1 [Example 41, 2-(6-Dimethylamino-pyridin-3-yl)-N-[1-(3,4,5-trifluoro-benzyl)-1H-pyrazol-3-yl]-acetamide] | 38 |
| CC1(C)Cc2ccc(CC(=O)Nc3ccn(Cc4ccc(C#N)cn4)n3)cc2O1 [Example 380, N-[1-(5-Cyano-pyridin-2-ylmethyl)-1H-pyrazol-3-yl]-2-(2,2-dimethyl-2,3-dihydro-benzofuran-6-yl)-acetamide] | 214 |
| CC1(C)C(=O)Nc2ccc(CC(=O)Nc3ccn(Cc4ccc(F)c(F)c4)n3)cc21 [Example 228, N-[1-(3,4-Difluoro-benzyl)-1H-pyrazol-3-yl]-2-(3,3-dimethyl-2-oxo-2,3-dihydro-1H-indol-5-yl)-acetamide] | 44 |
| COCCN(C)c1ccc(CC(=O)Nc2ccn(Cc3ccc(OC)cc3)n2)cn1 [Example 183, N-[1-(4-Methoxy-benzyl)-1H-pyrazol-3-yl]-2-{6-[(2-methoxy-ethyl)-methyl-amino]-pyridin-3-yl}-acetamide] | 530 |
| N#Cc1ccc(Cn2ccc(NC(=O)Cc3ccc(OCC4COC4)cc3)n2)cc1F [Example 262, N-[1-(4-Cyano-3-fluoro-benzyl)-1H-pyrazol-3-yl]-2-[4-(oxetan-3-ylmethoxy)-phenyl]-acetamide] | 155 |
| CN(C)c1ccc(CC(=O)Nc2ccn(Cc3ccc(OC(F)(F)F)cc3)n2)cn1 [Example 37, 2-(6-Dimethylamino-pyridin-3-yl)-N-[1-(4-trifluoromethoxy-benzyl)-1H-pyrazol-3-yl]-acetamide] | 29 |
| CC1(C)COc2ccc(CC(=O)Nc3ccn(Cc4ccc(C#N)cn4)n3)cc21 [Example 379, N-[1-(5-Cyano-pyridin-2-ylmethyl)-1H-pyrazol-3-yl]-2-(3,3-dimethyl-2,3-dihydro-benzofuran-5-yl)-acetamide] | 658 |
| Cc1ccc(Cn2ccc(NC(=O)Cc3ccc(C4(C)CC4)cc3)n2)nc1C#N [Example 377, N-[1-(6-Cyano-5-methyl-pyridin-2-ylmethyl)-1H-pyrazol-3-yl]-2-[4-(1-methyl-cyclopropyl)-phenyl]-acetamide] | 25 |
| CC(C)c1ccc(CC(=O)Nc2ccn(Cc3ccc(OCC(F)(F)F)cn3)n2)cc1 [Example 93, 2-(4-Isopropyl-phenyl)-N-{1-[5-(2,2,2-trifluoro-ethoxy)-pyridin-2-ylmethyl]-1H-pyrazol-3-yl}-acetamide] | 39 |
| CC(C)Cc1ccc(Cn2ccc(NC(=O)Cc3ccc(C(C)C)cc3)n2)nc1 [Example 98, N-[1-(5-Isobutyl-pyridin-2-ylmethyl)-1H-pyrazol-3-yl]-2-(4-isopropyl-phenyl)-acetamide] | 38 |
| CCN(C)c1ccc(CC(=O)Nc2ccn(Cc3ccc(F)c(F)c3)n2)cc1 [Example 130, N-[1-(3,4-Difluoro-benzyl)-1H-pyrazol-3-yl]-2-[4-(ethyl-methyl-amino)-phenyl]-acetamide] | 293 |

Continued by falling IC50, values first:

| IC50 [nM] | SMILES |
| --- | --- |
| 25 | COc1ccc(Cn2ccc(NC(=O)Cc3ccc(N(C)C)cc3)n2)cc1C(F)(F)F [Example 29, 2-(4-Dimethylamino-phenyl)-N-[1-(4-methoxy-3-trifluoromethyl-benzyl)-1H-pyrazol-3-yl]-acetamide] |
| 25 | O=C(Cc1ccc(C2(O)COC2)cc1)Nc1ccn(Cc2ccc(F)c(F)c2)n1 [Example 226, N-[1-(3,4-Difluoro-benzyl)-1H-pyrazol-3-yl]-2-[4-(3-hydroxy-oxetan-3-yl)-phenyl]-acetamide] |
| 23 | N#Cc1c(F)cc(Cn2ccc(NC(=O)Cc3ccc(N4CCC(F)(F)C4)nc3)n2)cc1F [Example 349, N-[1-(4-Cyano-3,5-difluoro-benzyl)-1H-pyrazol-3-yl]-2-[6-(3,3-difluoro-pyrrolidin-1-yl)-pyridin-3-yl]-acetamide] |
| 21 | CN(c1ccc(CC(=O)Nc2ccn(Cc3ccc(F)cc3)n2)cn1)C1CC1 [Example 167, 2-[6-(Cyclopropyl(methyl)amino)-pyridin-3-yl]-N-[1-(4-fluoro-benzyl)-1H-pyrazol-3-yl]-acetamide] |
| 21 | CCN(CC)c1ccc(CC(=O)Nc2ccn(Cc3ccc(OC)cc3)n2)cc1 [Example 112, 2-(4-Diethylamino-phenyl)-N-[1-(4-methoxy-benzyl)-1H-pyrazol-3-yl]-acetamide] |
| 21 | CCN(CC)c1ccc(CC(=O)Nc2ccn(Cc3ccc(F)cc3)n2)cn1 [Example 190, 2-(6-Diethylamino-pyridin-3-yl)-N-[1-(4-fluoro-benzyl)-1H-pyrazol-3-yl]-acetamide] |
| 20 | CC(C)(C#N)c1ccc(CC(=O)Nc2ccn(Cc3ccc(F)c(C#N)c3)n2)cc1 [Example 335, 2-[4-(Cyano-dimethyl-methyl)-phenyl]-N-[1-(3-cyano-4-fluoro-benzyl)-1H-pyrazol-3-yl]-acetamide] |
| 15 | CC(C)c1ccc(CC(=O)Nc2ccn(Cc3ccc(F)cn3)n2)cc1 [Example 106, N-[1-(5-Fluoro-pyridin-2-ylmethyl)-1H-pyrazol-3-yl]-2-(4-isopropyl-phenyl)-acetamide] |
| 12 | CC(C)c1ccc(Cn2ccc(NC(=O)Cc3ccc(N(C)C)cc3)n2)cc1 [Example 17, 2-(4-Dimethylamino-phenyl)-N-[1-(4-isopropyl-benzyl)-1H-pyrazol-3-yl]-acetamide] |
| 9.1 | O=C(Cc1ccc(N2CCC(F)(F)C2)cc1)Nc1ccn(Cc2ccc(F)cc2)n1 [Example 77, 2-[4-(3,3-Difluoro-pyrrolidin-1-yl)-phenyl]-N-[1-(4-fluoro-benzyl)-1H-pyrazol-3-yl]-acetamide] |
| 7.6 | Cc1ccc(Cn2ccc(NC(=O)Cc3ccc(N(C)C)cc3)n2)cc1F [Example 32, 2-(4-Dimethylamino-phenyl)-N-[1-(3-fluoro-4-methyl-benzyl)-1H-pyrazol-3-yl]-acetamide] |
| 4.8 | O=C(Cc1ccc(N2CC[C@@H](F)C2)cc1)Nc1ccn(Cc2ccc(F)c(F)c2)n1 [Example 68, N-[1-(3,4-Difluoro-benzyl)-1H-pyrazol-3-yl]-2-[4-((R)-3-fluoro-pyrrolidin-1-yl)-phenyl]-acetamide] |
| 3.4 | O=C(Cc1ccc(N2CCC(F)(F)C2)cc1)Nc1ccn(Cc2ccc(F)c(F)c2)n1 [Example 67, N-[1-(3,4-Difluoro-benzyl)-1H-pyrazol-3-yl]-2-[4-(3,3-difluoro-pyrrolidin-1-yl)-phenyl]-acetamide] |
| 3.4 | COCCN(C)c1ccc(CC(=O)Nc2ccn(Cc3ccc(F)c(F)c3)n2)cc1 [Example 126] |
| 2.6 | O=C(Cc1ccc(N2CC(F)(F)C2)cc1)Nc1ccn(Cc2ccc(F)c(F)c2)n1 [Example 52, 2-[4-(3,3-Difluoro-azetidin-1-yl)-phenyl]-N-[1-(3,4-difluoro-benzyl)-1H-pyrazol-3-yl]-acetamide] |
| 2.4 | CN(C)c1ccc(CC(=O)Nc2ccn(Cc3ccc(Br)cc3)n2)cc1 [Example 239, N-[1-(4-Bromo-benzyl)-1H-pyrazol-3-yl]-2-(4-dimethylamino-phenyl)-acetamide] |

— US9932314B2, “Pyrazole compounds and their use as T-type calcium channel blockers” (IDORSIA PHARMACEUTICALS LTD, priority 2015, dated 2018)
